Results from US20030170731A1, “Diagnosis and treatment of non-ulcer dyspepsia based on hypothalamic-pituitary-adrenal axis abnormallity” (priority 2000, published 2003).

Test system: CRH receptors
Assay: CRH/ACTH test: plasma ACTH after intravenous ovine CRH, immunoradiometric assay
Type: in vivo, human
Details: ovine CRH 100 μg intravenously
Source text: A total of ten patients with NUD were recruited from the Gastroenterology Clinic at St. James's Hospital, Dublin. Patients consisted of six men and four woman between the ages of twenty eight and forty five. They were matched for age and sex with ten healthy volunteers. To be included in the study patients had at least four of the following symptoms for at least three months: early satiety, upper abdominal pain, post prandial bloating, excessive flatulence, borborygmus, and nausea and/or vomiting. They all had normal results on physical examination. Endoscopic examination, twenty-four hour ambulatory pH monitoring, abdominal ultrasound were all negative. Five patients with H. pylori infestation were tested both before and after H. pylori eradication. The other five patients had no evidence of H. pylori infection. None of the patients had evidence of a formal psychiatric illness. Also none of the patients fulfilled the criteria for IBS.
Patients who were H. pylori positive were re-tested six months after commencing eradication therapy. In all cases endocrine tests were commenced at 1400 h. The test procedure was as follows. […]
Plasma ACTH was measured using a two site unextracted immunoradiometric assay with a commercially available kit supplied by the Nichols Institute (San Juan Capistrano, Calif.). […]

## ovine CRH: ovine variant of corticotropin releasing hormone, given intravenously as a challenge agent
H. pylori positive NUD patients re-tested six months after commencing eradication therapy
  CRH/ACTH enhancement following H. pylori eradication therapy: persists
NUD patients with and without H. pylori infection, relative to healthy volunteers, blood at 15-120 min
  plasma ACTH response following CRH stimulation: vastly enhanced
